Key:
Experiment in all cases: Test F preemergence
kochia = format: in vivo, Kochia scoparia
Source text: (§1) Seeds of plant species selected from corn (Zea mays), soybean (Glycine max), velvetleaf (Abutilon theophrasti), lambsquarters (Chenopodium album), wild poinsettia (Euphorbia heterophylla), pigweed, palmer (palmer pigweed, Amaranthus palmeri), common waterhemp (Amaranthus rudis), surinam grass (Brachiaria decumbens), large crabgrass (Digitaria sanguinalis), crabgrass, Brazil (Brazilian crabgrass, Digitaria horizontalis), fall panicum (Panicum dichotomiflorum), giant foxtail (Setaria faberii), green foxtail (Setaria viridis), goosegrass (Eleusine indica), johnsongrass (Sorghum halepense), common ragweed (Ambrosia elation), barnyardgrass (Echinochloa crus-galli), southern sandbur (Cenchrus echinatus), arrowleaf sida (Sida rhombifolia), Italian ryegrass (Lolium multiflorum), dayflower, VA (Virginia (VA) dayflower, Commelina virginica), field bindweed (Convolvulus arvensis), cocklebur (common cocklebur, Xanthium strumarium), morningglory (Ipomoea coccinea), nightshade (eastern black nightshade, Solanum ptycanthum), kochia (Kochia scoparia), yellow nutsedge (Cyperus esculentus), and hairy beggarticks (Bidens pilosa), were planted into a silt loam soil and treated preemergence with test chemicals formulated in a non-phytotoxic solvent mixture which included a surfactant.
(§2) At the same time, plants from these crop and weed species and also horseweed (Canada horseweed, Conyza canadensis), smartweed (ladysthumb smartweed, Polygonum persicaria), waterhemp_RES1, (ALS & Triazine resistant common waterhemp, Amaranthus rudis), and waterhemp_RES2, (ALS & HPPD resistant common waterhemp, Amaranthus rudis) were treated with postemergence applications of test chemicals formulated in the same manner. Plants ranged in height from 2 to 18 cm for postemergence treatments (1- to 4-leaf stage). Treated plants and controls were maintained in a greenhouse for 14 to 21 days, after which time all species were compared to controls and visually evaluated. Plant response ratings, summarized in Table F, are based on a scale of 0 to 100 where 0 is no effect and 100 is complete control. A dash (-) response means no test result.

goosegrass = format: in vivo, Eleusine indica
Source text: as §1, §2

Surinam grass = format: in vivo, Brachiaria decumbens
Source text: as §1, §2

hairy beggarticks = format: in vivo, Bidens pilosa
Source text: as §1, §2

[1] = Preemergence, 31 g ai/ha, scale 0 to 100
[2] = Preemergence, 62 g ai/ha, scale 0 to 100
[3] = Preemergence, 125 g ai/ha, scale 0 to 100
[4] = preemergence, 8 g ai/ha, scale 0 to 100, 100 is complete control
[5] = preemergence, 16 g ai/ha, scale 0 to 100, 100 is complete control
[6] = Preemergence, 250 g ai/ha, scale 0 to 100

Compound	Plant response rating, Kochia (kochia; [1])	Plant response rating, Kochia (kochia; [2])	Plant response rating, Kochia (kochia; [3])	Plant response rating, Kochia (kochia; [4])	Plant response rating, Goosegrass (goosegrass; [1])	Plant response rating, Goosegrass (goosegrass; [2])	Plant response rating, Goosegrass (goosegrass; [3])	Plant response rating, Goosegrass (goosegrass; [4])	Plant response rating, Goosegrass (goosegrass; [5])	Plant response rating, Surinam Grass (Surinam grass; [1])	Plant response rating, Surinam Grass (Surinam grass; [2])	Plant response rating, Surinam Grass (Surinam grass; [3])	Plant response rating, Surinam Grass (Surinam grass; [4])	Plant response rating, Surinam Grass (Surinam grass; [5])	Plant response rating, Hairy Beggarticks (hairy beggarticks; [1])	Plant response rating, Hairy Beggarticks (hairy beggarticks; [2])	Plant response rating, Hairy Beggarticks (hairy beggarticks; [3])	Plant response rating, Hairy Beggarticks (hairy beggarticks; [4])	Plant response rating, Hairy Beggarticks (hairy beggarticks; [5])	Plant response rating, Kochia (kochia; [5])	further results
CCOc1cc(C(=O)NCC(F)(F)F)nn1Cc1ccnc(C(F)(F)F)c1 [Compound 104]	25	100	100	0	30	75	100	5	25	35	75	80	0	10	0	0	10	0	0	–	–
CCNC(=O)c1cc(CCCl)n(Cc2ccnc(C(F)(F)F)c2)n1 [Compound 179]	30	35	90	0	30	30	30	0	–	20	20	60	0	–	40	40	40	35	–	–	–
CCNC(=O)c1cc(CC)n(Cc2ccnc(C(F)(F)F)c2)n1 [Compound 196]	–	85	100	15	–	70	95	0	0	–	25	70	0	0	–	15	35	0	0	40	–
Cc1cc(C(=O)NC(C)C)nn1Cc1ccnc(C(F)(F)F)c1 [Compound 197]	–	75	98	0	–	5	70	0	0	–	20	20	0	0	–	25	20	0	0	0	–
CCc1cc(C(=O)NC2CC2)nn1Cc1ccnc(OCC(F)(F)F)c1 [Compound 200]	–	70	90	–	–	35	65	–	0	–	5	65	–	0	–	0	0	–	0	20	Plant response rating, Kochia (kochia; [6]): 100; Plant response rating, Goosegrass (goosegrass; [6]): 90; Plant response rating, Surinam Grass (Surinam grass; [6]): 95; Plant response rating, Hairy Beggarticks (hairy beggarticks; [6]): 40

Reference: patent publication US20150105252A1, “SUBSTITUTED PYRAZOLES AS HERBICIDES” (E I DU PONT DE NEMOURS AND COMPANY, priority 2013, published 2015)
